Measured values from patent publication US20140038989A1, “TETRAHYDROPYRAZOLO [1,5-A] PYRIMIDINE AS ANTI-TUBERCULOSIS COMPOUNDS” (Glaxo Group Limited, priority 2011, published 2014).
Values after ≈ are worked out from the molar mass of the structure shown.

tested on: Mycobacterium tuberculosis H37Rv; assay: Mycobacterium tuberculosis H37Rv Inhibition Assay (Whole Cell Assay); format: cell-based; conditions: ATCC 25618 / H37Rv, H37Rv strain (ATCC25618), Middlebrook 7H9, six days at 37° C., resazurin fluorescence after 48 hours

| SMILES | MIC |
| --- | --- |
| Cc1ccc(CNC(=O)c2cnn3c2N[C@@H](c2ccc(C)cc2)C[C@H]3C(F)(F)F)cc1 (relative stereo) [Example 25, Cis-N-(4-methylbenzyl)-5-(p-tolyl)-7-(trifluoromethyl)-4,5,6,7-tetrahydropyrazolo[1,5-a]pyrimidine-3-carboxamide] | ≤ 1 µM |
| Cc1ccc([C@H]2C[C@@H](C(F)(F)F)n3ncc(C(=O)NCc4ccccc4C(F)(F)F)c3N2)cc1 (relative stereo) [Example 43, Cis-5-(p-tolyl)-7-(trifluoromethyl)-N-(2-(trifluoromethyl)benzyl)-4,5,6,7-tetrahydropyrazolo[1,5-a]pyrimidine-3-carboxamide] | > 2 µM |
| CCc1ccc([C@H]2C[C@@H](C(C)C)n3ncc(C(=O)NCc4ccc(C)cc4)c3N2)cc1 (relative stereo) [Example 66, Cis-5-(4-ethylphenyl)-7-isopropyl-N-(4-methylbenzyl)-4,5,6,7-tetrahydropyrazolo[1,5-a]pyrimidine-3-carboxamide] | ≤ 1 µM |
| CCc1ccc(C2CC(C(F)(F)F)n3ncc(C(=O)NCc4cccs4)c3N2)cc1 (centres unmarked) [Example 40, 5-(4-ethylphenyl)-N-(thiophen-2-ylmethyl)-7-(trifluoromethyl)-4,5,6,7-tetrahydropyrazolo[1,5-a]pyrimidine-3-carboxamide] | ≤ 1 µM |
| CCc1ccc([C@H]2C[C@@H](C(F)F)n3ncc(C(=O)NCc4ccc5c(c4)OCO5)c3N2)cc1 (relative stereo) [Example 34, Cis-N-(benzo[d][1,3]dioxol-5-ylmethyl)-7-(difluoromethyl)-5-(4-ethylphenyl)-4,5,6,7-tetrahydropyrazolo[1,5-a]pyrimidine-3-carboxamide] | ≤ 1 µM |
| CCc1ccc([C@H]2C[C@@H](C)n3ncc(C(=O)NCc4ccc(OC)cc4)c3N2)cc1 (relative stereo) [Example 23, Cis-5-(4-ethylphenyl)-7-methyl-N-{[4-(methyloxy)phenyl]methyl}-4,5,6,7-tetrahydropyrazolo[1,5-a]pyrimidine-3-carboxamide] | ≤ 1 µM |
| CCc1ccc([C@H]2C[C@@H](C(F)(F)F)n3ncc(C(=O)NCc4ccc(C)nc4)c3N2)cc1 (relative stereo) [Example 19, Cis-5-(4-ethylphenyl)-N-((6-methylpyridin-3-yl)methyl)-7-(trifluoromethyl)-4,5,6,7-tetrahydropyrazolo[1,5-a]pyrimidine-3-carboxamide] | 1 to 2 µM (≈ 0.443 to 0.887 µg/mL) |
| CCc1ccc([C@H]2C[C@@H](C(F)(F)F)n3ncc(C(=O)NCc4ccc(F)cc4F)c3N2)cc1 (relative stereo) [Example 59, Cis-N-[(2,4-difluorophenyl)methyl]-5-(4-ethylphenyl)-7-(trifluoromethyl)-4,5,6,7-tetrahydropyrazolo[1,5-a]pyrimidine-3-carboxamide] | ≤ 1 µM |
| CCc1ccc([C@H]2C[C@@H](C(F)F)n3ncc(C(=O)NCc4ccc(C)cc4)c3N2)cc1 (relative stereo) [Example 33, Cis-7-(difluoromethyl)-5-(4-ethylphenyl)-N-(4-methylbenzyl)-4,5,6,7-tetrahydropyrazolo[1,5-a]pyrimidine-3-carboxamide] | ≤ 1 µM |
| CCc1ccc([C@H]2C[C@@H](C(F)(F)F)n3ncc(C(=O)NCc4ccc(Cl)nc4)c3N2)cc1 (relative stereo) [Example 76, Cis-N-((6-chloropyridin-3-yl)methyl)-5-(4-ethylphenyl)-7-(trifluoromethyl)-4,5,6,7-tetrahydropyrazolo[1,5-a]pyrimidine-3-carboxamide] | 1 to 2 µM (≈ 0.464 to 0.928 µg/mL) |
| CCc1ccc([C@H]2C[C@@H](C(F)(F)F)n3ncc(C(=O)NCc4ccco4)c3N2)cc1 (single isomer, unassigned) [Example 7a] | ≤ 1 µM |
| CCc1ccc([C@H]2C[C@@H](C(C)C)n3ncc(C(=O)NCc4ccc(OC)cc4)c3N2)cc1 (relative stereo) [Example 71, Cis-5-(4-ethylphenyl)-7-isopropyl-N-(4-methoxybenzyl)-4,5,6,7-tetrahydropyrazolo[1,5-a]pyrimidine-3-carboxamide] | ≤ 1 µM |
| CCc1ccc([C@H]2C[C@@H](C(F)(F)F)n3ncc(C(=O)NCc4ccc(F)c(F)c4)c3N2)cc1 (relative stereo) [Example 16, Cis-N-[(3,4-difluorophenyl)methyl]-5-(4-ethylphenyl)-7-(trifluoromethyl)-4,5,6,7-tetrahydropyrazolo[1,5-a]pyrimidine-3-carboxamide] | ≤ 1 µM |
| Cc1ccc([C@H]2C[C@@H](C(F)(F)F)n3ncc(C(=O)NCc4ccco4)c3N2)cc1 (relative stereo) [56′, Cis-N-(furan-2-ylmethyl)-5-(p-tolyl)-7-(trifluoromethyl)-4,5,6,7-tetrahydropyrazolo[1,5-a]pyrimidine-3-carboxamide, reference compound] | > 2 µM |
| CCc1ccc([C@H]2C[C@@H](C(F)(F)F)n3ncc(C(=O)NCc4cccn4C)c3N2)cc1 (relative stereo) [Example 10, Cis-5-(4-ethylphenyl)-N-[(1-methyl-1H-pyrrol-2-yl)methyl]-7-(trifluoromethyl)-4,5,6,7-tetrahydropyrazolo[1,5-a]pyrimidine-3-carboxamide] | 1 to 2 µM (≈ 0.431 to 0.863 µg/mL) |
| Cc1ccc(CNC(=O)c2cnn3c2NC(c2ccc(C)cc2)CC3C(F)F)cc1 (centres unmarked) [Example 51, 7-(difluoromethyl)-N-(4-methylbenzyl)-5-(p-tolyl)-4,5,6,7-tetrahydropyrazolo[1,5-a]pyrimidine-3-carboxamide] | > 2 µM |
| CCc1ccc([C@H]2C[C@@H](C(F)(F)F)n3ncc(C(=O)NCc4ccccc4OC)c3N2)cc1 (relative stereo) [Example 45, Cis-5-(4-ethylphenyl)-N-(2-methoxybenzyl)-7-(trifluoromethyl)-4,5,6,7-tetrahydropyrazolo[1,5-a]pyrimidine-3-carboxamide] | > 2 µM |
| CCc1ccc([C@H]2C[C@@H](C(C)(C)C)n3ncc(C(=O)NCc4ccc5c(c4)OCO5)c3N2)cc1 (relative stereo) [Example 36, Cis-N-(benzo[d][1,3]-dioxol-5-ylmethyl)-7-(tert-butyl)-5-(4-ethylphenyl)-4,5,6,7-tetrahydropyrazolo[1,5-a]pyrimidine-3-carboxamide] | 1 to 2 µM (≈ 0.461 to 0.921 µg/mL) |
| CCc1ccc([C@H]2C[C@@H](C(F)(F)F)n3ncc(C(=O)NCc4cccc(F)c4)c3N2)cc1 (relative stereo) [Example 60, Cis-5-(4-ethylphenyl)-N-(3-fluorobenzyl)-7-(trifluoromethyl)-4,5,6,7-tetrahydropyrazolo[1,5-a]pyrimidine-3-carboxamide] | ≤ 1 µM |
| COc1ccc(C2CC(C(F)(F)F)n3ncc(C(=O)NCc4ccc5c(c4)OCO5)c3N2)cc1 (centres unmarked) [Example 41, N-(benzo[d][1,3]dioxol-5-ylmethyl)-5-(4-methoxyphenyl)-7-(trifluoromethyl)-4,5,6,7-tetrahydropyrazolo[1,5-a]pyrimidine-3-carboxamide] | ≤ 1 µM |
| CCc1ccc([C@H]2C[C@@H](C(F)(F)F)n3ncc(C(=O)NCc4ccccc4C(F)(F)F)c3N2)cc1 (relative stereo) [Example 44, Cis-5-(4-ethylphenyl)-7-(trifluoromethyl)-N-(2-(trifluoromethyl)benzyl)-4,5,6,7-tetrahydropyrazolo[1,5-a]pyrimidine-3-carboxamide] | > 2 µM |
| Cc1ccc(C2CC(C(F)(F)F)n3ncc(C(=O)NCc4ccccc4Cl)c3N2)cc1 (centres unmarked) [Example 52, N-(2-chlorobenzyl)-5-(p-tolyl)-7-(trifluoromethyl)-4,5,6,7-tetrahydropyrazolo[1,5-a]pyrimidine-3-carboxamide] | > 2 µM |
| CCc1ccc([C@H]2C[C@@H](C(F)(F)F)n3ncc(C(=O)NCc4ncc(C)cc4F)c3N2)cc1 [Example 106, (5R,7S)-5-(4-ethylphenyl)-N-((3-fluoro-5-methylpyridin-2-yl)methyl)-7-(trifluoromethyl)-4,5,6,7-tetrahydropyrazolo[1,5-a]pyrimidine-3-carboxamide] | 1 to 2 µM (≈ 0.461 to 0.923 µg/mL) |
| Cc1ccc([C@H]2C[C@@H](C(F)(F)F)n3ncc(C(=O)NCc4cccc(C)c4)c3N2)cc1 (relative stereo) [Example 24, Cis-N-(3-methylbenzyl)-5-(p-tolyl)-7-(trifluoromethyl)-4,5,6,7-tetrahydropyrazolo[1,5-a]pyrimidine-3-carboxamide] | ≤ 1 µM |
| Cc1ccc([C@H]2C[C@@H](C(F)(F)F)n3ncc(C(=O)NCc4ccc(N(C)C)cc4)c3N2)cc1 (relative stereo) [Example 49, Cis-N-(4-(dimethylamino)benzyl)-5-(p-tolyl)-7-(trifluoromethyl)-4,5,6,7-tetrahydropyrazolo[1,5-a]pyrimidine-3-carboxamide] | > 2 µM |
| O=C(NCc1ccc2c(c1)OCO2)c1cnn2c1N[C@@H](c1ccc(Br)cc1)C[C@H]2C(F)(F)F (relative stereo) [Example 22, Cis-N-(benzo[d][1,3]dioxol-5-ylmethyl)-5-(4-bromophenyl)-7-(trifluoromethyl)-4,5,6,7-tetrahydropyrazolo[1,5-a]pyrimidine-3-carboxamide] | ≤ 1 µM |
| O=C(NCc1ccco1)c1cnn2c1NC(c1ccc(Br)cc1)CC2C(F)(F)F (centres unmarked) [57′, 5-(4-bromophenyl)-N-(furan-2-ylmethyl)-7-(trifluoromethyl)-4,5,6,7-tetrahydropyrazolo[1,5-a]pyrimidine-3-carboxamide, reference compound] | > 2 µM |
| CCc1ccc([C@H]2C[C@@H](C(F)(F)F)n3ncc(C(=O)NCc4ccc(Cl)nc4)c3N2)cc1 [Example 103, (5R,7S)—N-((6-chloropyridin-3-yl)methyl)-5-(4-ethylphenyl)-7-(trifluoromethyl)-4,5,6,7-tetrahydropyrazolo[1,5-a]pyrimidine-3-carboxamide] | ≤ 1 µM |
| CCc1ccc([C@H]2C[C@@H](C(F)(F)F)n3ncc(C(=O)NCc4cc(F)cc(F)c4)c3N2)cc1 (relative stereo) [Example 17, Cis-N-[(3,5-difluorophenyl)methyl]-5-(4-ethylphenyl)-7-(trifluoromethyl)-4,5,6,7-tetrahydropyrazolo[1,5-a]pyrimidine-3-carboxamide] | ≤ 1 µM |
